Measurements reported in patent US11203575B2, “Methhod for producing a crystalline form of 5-amino-2,3-dihydrophthalazine-1,4-dione” (METRIOPHARM AG, priority 2016, dated 2021).

Excerpt: FIG. 5: TG-DSC diagram of crystalline form of 5-amino-2,3-dihydro-1,4-phthalazinedione produced by the method according to the invention. Upper trace: Mass loss determined by TG. Lower trace: Heat flow determined by DSC

Compound: Nc1cccc2c(=O)[nH][nH]c(=O)c12 [crystalline form of luminol, 5-amino-2,3-dihydrophthalazine-1,4-dione]
- solid state transformation to other forms (TG-DSC, until thermal degradation of the crystalline compound sets in (FIG. 5)): no solid state transformation to other forms is observed
- thermal stability up to (simultaneous TG and DSC, solid crystalline form (FIG. 5)): up to 328±1 °C
